Our source for the IC50 values is ChEMBL document CHEMBL1146256, “ATP-conjugated peptide inhibitors for calmodulin-dependent protein kinase II” (Bioorg Med Chem Lett, 2007).

Starred links: 1 amine or outer side, 2 acyl side, 3 side chain; linkers in the order of their positions; H or OH if unused. Non-standard residues stand in square brackets, D forms with d. Residues, ends and D or L forms follow the SMILES beside them. ξ: configuration not given here. *: point of attachment. X1 = Nc1ncnc2c1ncn2[C@@H]1O[C@H](COP(=O)(O)OP(=O)(O)OP(=O)(O)OC2CC(=O)N(CCOCCOCCOCCN3C(=O)CC(S[C@@H](N[*:1])C(=O)[*:2])C3=O)C2=O)[C@@H](O)[C@H]1O; Biotin = O=C1N[C@H]2[C@H](CS[C@H]2CCCCC(=O)*)N1; ξF = NC(Cc1ccccc1)C(=O)O

The nature of the test: Inhibition of CaMK2. Set-up: species or system Homo sapiens.

Regarding `CC(C)C[C@H](NC(=O)[C@H](C)NC(=O)[C@H](CC(=O)O)NC(=O)CNCC(=O)[C@H](CNC(=O)CCOP(=O)(O)OP(=O)(O)OP(=O)(O)OC[C@@H]1O[C@H](n2cnc3c(N)ncnc32)[C@@H](O)[C@H]1O)NC(=O)[C@H](CCC(=O)O)NC(=O)[C@H](CCC(N)=O)NC(=O)[C@H](CCCNC(=N)N)NC(=O)[C@H](CCCNC(=N)N)NC(=O)[C@H](CC(C)C)NC(=O)[C@H](C)NC(=O)[C@H](CCCCN)NC(=O)[C@H](CCCCN)NC(=O)CCCC[C@@H]1SC[C@@H]2NC(=O)N[C@@H]21)C(=O)O`, the IC50 came out at 1320 nM.
For the compound `CC(C)C[C@H](NC(=O)[C@H](C)NC(=O)[C@H](CC(=O)O)NC(=O)C(Cc1ccccc1)NC(=O)[C@H](C)NC(=O)[C@H](CCC(=O)O)NC(=O)[C@H](CCC(N)=O)NC(=O)[C@H](CCCNC(=N)N)NC(=O)[C@H](CCCNC(=N)N)NC(=O)[C@H](CC(C)C)NC(=O)[C@H](CCCCN)NC(=O)[C@H](CCCCN)NC(=O)[C@H](CCCCN)NC(=O)CCCC[C@@H]1SC[C@@H]2NC(=O)N[C@@H]21)C(=O)N[C@H](SC1CC(=O)N(CCOCCOCCOCCN2C(=O)CC(OP(=O)(O)OP(=O)(O)OP(=O)(O)OC[C@H]3O[C@@H](n4cnc5c(N)ncnc54)[C@H](O)[C@@H]3O)C2=O)C1=O)C(=O)O` (some centres undefined) (Biotin-KKKLRRQEA[ξF]DAL[X1]-OH), it took 181 nM to reach half-maximal inhibition (IC50).
As to `CC(C)C[C@H](NC(=O)[C@H](C)NC(=O)[C@H](CCCCN)NC(=O)[C@H](CCCCN)NC(=O)CCCC[C@@H]1SC[C@@H]2NC(=O)N[C@@H]21)C(=O)N[C@@H](CCCNC(=N)N)C(=O)N[C@@H](CCCNC(=N)N)C(=O)N[C@@H](CCC(N)=O)C(=O)N[C@@H](CCC(=O)O)C(=O)N[C@@H](C)C(=O)N[C@H](C(=O)N[C@@H](CC(=O)O)C(=O)N[C@@H](C)C(=O)N[C@@H](CC(C)C)C(=O)N[C@H](SC1CC(=O)N(CCOCCOCCOCCN2C(=O)CC(OP(=O)(O)OP(=O)(O)OP(=O)(O)OC[C@H]3O[C@@H](n4cnc5c(N)ncnc54)[C@H](O)[C@@H]3O)C2=O)C1=O)C(=O)O)C(C)C` (some centres undefined) (Biotin-KKALRRQEAVDAL[X1]-OH), it took 305 nM to reach half-maximal inhibition (IC50).
The compound H-KKKLRRQEAFDAL-OH returned an IC50 of 76 nM.
`CC(C)C[C@H](NC(=O)[C@H](C)NC(=O)[C@H](CC(=O)O)NC(=O)[C@@H](NCC(=O)[C@H](CNC(=O)CCOP(=O)(O)OP(=O)(O)OP(=O)(O)OC[C@@H]1O[C@H](n2cnc3c(N)ncnc32)[C@@H](O)[C@H]1O)NC(=O)[C@H](CCC(=O)O)NC(=O)[C@H](CCC(N)=O)NC(=O)[C@H](CCCNC(=N)N)NC(=O)[C@H](CCCNC(=N)N)NC(=O)[C@H](CC(C)C)NC(=O)[C@H](C)NC(=O)[C@H](CCCCN)NC(=O)[C@H](CCCCN)NC(=O)CCCC[C@@H]1SC[C@@H]2NC(=O)N[C@@H]21)C(C)C)C(=O)O` returned an IC50 of 67 nM.
H-KKALRRQEAVDAL-OH had an IC50 of 320 nM.
On to `CC(C)C[C@H](NC(=O)[C@H](C)NC(=O)[C@H](CCCCN)NC(=O)[C@H](CCCCN)NC(=O)CCCC[C@@H]1SC[C@@H]2NC(=O)N[C@@H]21)C(=O)N[C@@H](CCCNC(=N)N)C(=O)N[C@@H](CCCNC(=N)N)C(=O)N[C@@H](CCC(N)=O)C(=O)N[C@@H](CCC(=O)O)C(=O)N[C@@H](C)C(=O)NCC(=O)N[C@@H](CC(=O)O)C(=O)N[C@@H](C)C(=O)N[C@@H](CC(C)C)C(=O)N[C@H](SC1CC(=O)N(CCOCCOCCOCCN2C(=O)CC(OP(=O)(O)OP(=O)(O)OP(=O)(O)OC[C@H]3O[C@@H](n4cnc5c(N)ncnc54)[C@H](O)[C@@H]3O)C2=O)C1=O)C(=O)O` (some centres undefined) (Biotin-KKALRRQEAGDAL[X1]-OH), for which the IC50 amounted to 18000 nM.
With H-KKALRRQEAGDAL-OH the figure was 4000 nM; with `CC(C)C[C@H](NC(=O)[C@H](C)NC(=O)[C@H](CC(=O)O)NC(=O)[C@H](Cc1ccccc1)NCC(=O)[C@H](CNC(=O)CCOP(=O)(O)OP(=O)(O)OP(=O)(O)OC[C@@H]1O[C@H](n2cnc3c(N)ncnc32)[C@@H](O)[C@H]1O)NC(=O)[C@H](CCC(=O)O)NC(=O)[C@H](CCC(N)=O)NC(=O)[C@H](CCCNC(=N)N)NC(=O)[C@H](CCCNC(=N)N)NC(=O)[C@H](CC(C)C)NC(=O)[C@H](CCCCN)NC(=O)[C@H](CCCCN)NC(=O)[C@H](CCCCN)NC(=O)CCCC[C@@H]1SC[C@@H]2NC(=O)N[C@@H]21)C(=O)O`, 22 nM.
